Experimental data from US20190269705A1, “METHODS AND MATERIALS FOR TREATING GRAFT VERSUS HOST DISEASE” (Regents of the University of Minnesota, priority 2017, published 2019).
Entries after “also recorded” stand apart in the source; their conditions may differ.

Tests used:
Th17 cells = test: Nutrient uptake and secretion by NMR; assay type: cell-based, mouse
Th1 cells = test: RNA-Seq and gene set enrichment analysis, Th1; assay type: cell-based, mouse
Protocol: ATAC-Seq: Crude nuclei pellets were isolated as described elsewhere (see, e.g., Buenrostro et al., 2013 Nat Meth. 10(12):1213-1218) with modifications. Briefly, naïve CD4 T cells were skewed to Th1 and Th17 subsets in vitro with vehicle or in the presence of 500 nM CB839. At Day 5, T cells were re-isolated for CD4+ cells using Miltenyi CD4+ negative selection kit (Cat #: 130-104-454). 1×10^5 cells were removed for nuclei extraction in ATAC-Seq lysing buffer. Cells were exposed to Tn5+ adaptor proteins from Nextera DNA for 30 min at 37° C. and immediately placed on ice. Transposed eluate was amplified via PCR using Nextera DNA preparation kit (Illumina, Cat #: FC-121-1030), NEBNext High-fidelity 2× PCR mix (New England Labs, Cat #: M0541), and multiplexed (Illumina, Cat #: FC-121-1011). Samples were purified using Zymo DNA cleanup kit (Cat #: D4011). QC of samples was run on bioanalyzer before being sent for sequencing. RNA-Seq: Th1 and Th17 cells skewed with or without CB839 were isolated as previously described and total RNA extracted (Qiagen RNEasy Mini kit, Cat #: 74104). RNA was sent to VANTAGE core at Vanderbilt University and sequenced on HiSeq 2500. n=3 for each sample was analyzed. Samples were analyzed using the R program DESeq2. GSEA was performed using MSigDB.
Th1 and Th17 cells were skewed with or without CB839 over 5 days and total RNA extracted for RNAseq (Cat #: 74104). RNA was sent to VANderbilt Technologies for Advanced GEnomics (VANTAGE) core at Vanderbilt University. Libraries were prepared using 50 ng of total RNA using the NEBNext Ultra RNA Library Kit for Illumina (Cat #E7530) and sequenced on HiSeq3000 at 75 bp paired-end. Each sample was analyzed in triplicate. Sequencing reads were aligned against the Mouse GENCODE genome, Version M14 (Jan. 2017 freeze, GRCm38, Ensembl 89) using the Spliced Transcripts Alignment to a Reference (STAR) software (ref: 26187010 and 23104886). Reads were preprocessed and index using SAMtools (ref: 19505943). Mapped reads were assigned to gene features and quantified using featureCounts (ref: 24227677). Normalization and differential expression was performed using DESeq2 (Love et al., 2014). Skewed lymphocytes with and without CB839 were compared in both Th1 and Th17 groups. […] The top 200 most differentially expressed genes were used for unsupervised hierarchical cluster analysis and visualized using heatmap representations.

[1] = Th1 Cells: Decreased Pathways, HALLMARK_ALLOGRAFT_REJECTION
[2] = Th1 Cells: Decreased Pathways, HALLMARK_ANGIOGENESIS
[3] = Th1 Cells: Decreased Pathways, HALLMARK_APICAL_JUNCTION
[4] = Th1 Cells: Decreased Pathways, HALLMARK_APOPTOSIS
[5] = Th1 Cells: Decreased Pathways, HALLMARK_COMPLEMENT
[6] = Th1 Cells: Decreased Pathways, HALLMARK_EPITHELIAL_MESENCHYMAL_TRANSITION
[7] = Th1 Cells: Decreased Pathways, HALLMARK_ESTROGEN_RESPONSE_EARLY
[8] = Th1 Cells: Decreased Pathways, HALLMARK_INFLAMMATORY_RESPONSE
[9] = Th1 Cells: Decreased Pathways, HALLMARK_INTERFERON_GAMMA_RESPONSE
[10] = Th1 Cells: Decreased Pathways, HALLMARK_KRAS_SIGNALING_UP
[11] = Th1 Cells: Decreased Pathways, HALLMARK_UV_RESPONSE_DN
[12] = Th1 Cells: Increased Pathways, HALLMARK_DNA_REPAIR
[13] = Th1 Cells: Increased Pathways, HALLMARK_E2F_TARGETS
[14] = Th1 Cells: Increased Pathways, HALLMARK_ESTROGEN_RESPONSE_LATE
[15] = Th1 Cells: Increased Pathways, HALLMARK_G2M_CHECKPOINT
[16] = Th1 Cells: Increased Pathways, HALLMARK_GLYCOLYSIS
[17] = Th1 Cells: Increased Pathways, HALLMARK_IL2_STAT5_SIGNALING
[18] = Th1 Cells: Increased Pathways, HALLMARK_MITOTIC_SPINDLE
[19] = Th1 Cells: Increased Pathways, HALLMARK_MTORC1_SIGNALING
[20] = Th1 Cells: Increased Pathways, HALLMARK_MYC_TARGETS_V1
[21] = Th1 Cells: Increased Pathways, HALLMARK_P53_PATHWAY

## O=C(Cc1cccc(OC(F)(F)F)c1)Nc1ccc(CCCCc2nnc(NC(=O)Cc3ccccn3)s2)nn1 [CB839]
Th17 cells
  glutamine uptake and glutamate, pyruvate, and lactate secretion: reduced upon GLS inhibition
Th1 cells; Th1
  Pik3ip1 expression by RNA-Seq: most strongly downregulated
Th1 cells; Th1, CB839-treated
  compensation by GLS2 at the RNA level: No compensation by GLS2 at the RNA level
Th1 cells; Th1, CB839 vs vehicle
  direction of the 200 genes with the most altered expression: the majority showed increased expression
  gene set enrichment: cell cycle, mTORC1, Myc, IL2 signaling pathways: upregulation of cell cycle, mTORC1, Myc, IL2 signaling, and glycolysis pathways; also recorded: upregulation of specific pathways including those related to cell cycle, mTORC1, Myc, and IL2 signaling
Th1 cells; [1]
  # Genes in Overlap (k): 17
  k/K: 0.085
Th1 cells; [2]
  # Genes in Overlap (k): 6
  k/K: 0.1667
Th1 cells; [3]
  # Genes in Overlap (k): 16
  k/K: 0.08
Th1 cells; [4]
  # Genes in Overlap (k): 13
  k/K: 0.0807
Th1 cells; [5]
  # Genes in Overlap (k): 18
  k/K: 0.09
Th1 cells; [6]
  # Genes in Overlap (k): 13
  k/K: 0.065
Th1 cells; [7]
  # Genes in Overlap (k): 13
  k/K: 0.065
Th1 cells; [8]
  # Genes in Overlap (k): 18
  k/K: 0.09
Th1 cells; [9]
  # Genes in Overlap (k): 14
  k/K: 0.07
Th1 cells; [10]
  # Genes in Overlap (k): 20
  k/K: 0.1
Th1 cells; [11]
  # Genes in Overlap (k): 11
  k/K: 0.0764
Th1 cells; [12]
  # Genes in Overlap (k): 28
  k/K: 0.1867
Th1 cells; [13]
  # Genes in Overlap (k): 135
  k/K: 0.675
Th1 cells; [14]
  # Genes in Overlap (k): 30
  k/K: 0.15
Th1 cells; [15]
  # Genes in Overlap (k): 101
  k/K: 0.505
Th1 cells; [16]
  # Genes in Overlap (k): 34
  k/K: 0.17
Th1 cells; [17]
  # Genes in Overlap (k): 37
  k/K: 0.185
Th1 cells; [18]
  # Genes in Overlap (k): 56
  k/K: 0.28
Th1 cells; [19]
  # Genes in Overlap (k): 47
  k/K: 0.235
Th1 cells; [20]
  # Genes in Overlap (k): 43
  k/K: 0.215
Th1 cells; [21]
  # Genes in Overlap (k): 30
  k/K: 0.15
